Columns and labels:
Type in all cases: cell-based
[1] = system: Jeko cells; experiment: 3-day CellTiter Glow combination study in Jeko cells with wild-type or mutant CARD11; details: FIG. 6
Protocol: Jeko cells, a MCL cell line, and OCI-Ly3, a DLBCL cell line, were used for this experiment.
In summary, 10,000 cells were plated into 96-well plates and treated with different concentrations of inhibitors. 3 days later, CellTiter Glow reagent was added into the wells and the luminescent signals were measured.

[2] = system: HBL-1; experiment: Combined drug treatment cell viability, CellTiter-Glo assay (Example 2); details: 3 days
[3] = system: SU-DHL-2; experiment: as above; details: 3 days
[4] = system: TMD8; experiment: as above; details: 3 days
[5] = system: OCI-LY-3; experiment: as above; details: 3 days
[6] = system: OCI-LY-10; experiment: as above; details: 3 days
[7] = system: U2932; experiment: as above; details: 3 days
[8] = ibrutinib 0 nM, JAK3 10 μM / MCL-1 3 μM alone
[9] = ibrutinib 0.0512 nM, JAK3 10 μM / MCL-1 3 μM / medium alone
[10] = ibrutinib 0.256 nM, JAK3 10 μM / MCL-1 3 μM / medium alone
[11] = ibrutinib 1.28 nM, JAK3 10 μM / MCL-1 3 μM / medium alone
[12] = ibrutinib 6.4 nM, JAK3 10 μM / MCL-1 3 μM / medium alone
[13] = ibrutinib 32 nM, JAK3 10 μM / MCL-1 3 μM / medium alone
[14] = ibrutinib 160 nM, JAK3 10 μM / MCL-1 3 μM / medium alone
[15] = ibrutinib 800 nM, JAK3 10 μM / MCL-1 3 μM / medium alone
[16] = ibrutinib 20000 nM, JAK3 10 μM / MCL-1 3 μM / medium alone
[17] = ibrutinib 40000 nM, JAK3 10 μM / MCL-1 3 μM / medium alone

Question: CC(C)C[C@H](NC(=O)[C@H](Cc1ccccc1)NC(=O)c1cnccn1)B(O)O [Velcade] was tested. Which “sensitization of Jeko cells containing the mutant CARD11 to ibrutinib treatment” value [1] did it give?
Answer: sensitized

Question: Which “luminescence (CellTiter-Glo)” value [2, 8] does the source give for C[C@@H]1CCN(C(=O)CC#N)C[C@@H]1N(C)c1ncnc2[nH]ccc12 [tofacitinib] here?
Answer: 78088.40

Question: And the “luminescence (CellTiter-Glo)” value [2, 9]?
Answer: 48007.16

Question: What about the “luminescence (CellTiter-Glo)” value [2, 10] of the same compound?
Answer: 49532.94

Question: And the “luminescence (CellTiter-Glo)” value [2, 11]?
Answer: 56756.95

Question: And the “luminescence (CellTiter-Glo)” value [2, 12]?
Answer: 46403.61

Question: What about the “luminescence (CellTiter-Glo)” value [2, 13] of the same compound?
Answer: 47226.84

Question: And the “luminescence (CellTiter-Glo)” value [2, 14]?
Answer: 41745.82

Question: What about the “luminescence (CellTiter-Glo)” value [2, 15] of the same compound?
Answer: 37551.94

Question: And the “luminescence (CellTiter-Glo)” value [2, 16]?
Answer: 17614.87

Question: And the “luminescence (CellTiter-Glo)” value [2, 17]?
Answer: 39380.73

Question: And the “luminescence (CellTiter-Glo)” value [3, 8]?
Answer: 133588.4

Question: And the “luminescence (CellTiter-Glo)” value [3, 9]?
Answer: 154568.4

Question: What about the “luminescence (CellTiter-Glo)” value [3, 10] of the same compound?
Answer: 167037.0

Question: And the “luminescence (CellTiter-Glo)” value [3, 11]?
Answer: 171896.5

Question: And the “luminescence (CellTiter-Glo)” value [3, 12]?
Answer: 165146.8

Question: And the “luminescence (CellTiter-Glo)” value [3, 13]?
Answer: 173773.3

Question: What about the “luminescence (CellTiter-Glo)” value [3, 14] of the same compound?
Answer: 165414.5

Question: What about the “luminescence (CellTiter-Glo)” value [3, 15] of the same compound?
Answer: 167444.0

Question: What about the “luminescence (CellTiter-Glo)” value [3, 16] of the same compound?
Answer: 2706.8

Question: What about the “luminescence (CellTiter-Glo)” value [3, 17] of the same compound?
Answer: 164389.1

Question: And the “luminescence (CellTiter-Glo)” value [4, 8]?
Answer: 42085.03

Question: And the “luminescence (CellTiter-Glo)” value [4, 9]?
Answer: 22758.56

Question: And the “luminescence (CellTiter-Glo)” value [4, 10]?
Answer: 22844.02

Question: And the “luminescence (CellTiter-Glo)” value [4, 11]?
Answer: 23722.74

Question: And the “luminescence (CellTiter-Glo)” value [4, 12]?
Answer: 22806.63

Question: And the “luminescence (CellTiter-Glo)” value [4, 13]?
Answer: 23770.82

Question: What about the “luminescence (CellTiter-Glo)” value [4, 14] of the same compound?
Answer: 23674.67

Question: And the “luminescence (CellTiter-Glo)” value [4, 15]?
Answer: 21620.76

Question: What about the “luminescence (CellTiter-Glo)” value [4, 16] of the same compound?
Answer: 6463.53

Question: And the “luminescence (CellTiter-Glo)” value [4, 17]?
Answer: 19962.15

Question: What about the “luminescence (CellTiter-Glo)” value [5, 8] of the same compound?
Answer: 60068.93

Question: What about the “luminescence (CellTiter-Glo)” value [5, 9] of the same compound?
Answer: 52005.22

Question: What about the “luminescence (CellTiter-Glo)” value [5, 10] of the same compound?
Answer: 56590.84

Question: And the “luminescence (CellTiter-Glo)” value [5, 11]?
Answer: 49371.84

Question: What about the “luminescence (CellTiter-Glo)” value [5, 12] of the same compound?
Answer: 52737.31

Question: What about the “luminescence (CellTiter-Glo)” value [5, 13] of the same compound?
Answer: 47894.25

Question: And the “luminescence (CellTiter-Glo)” value [5, 14]?
Answer: 42659.67

Question: And the “luminescence (CellTiter-Glo)” value [5, 15]?
Answer: 54193.44

Question: What about the “luminescence (CellTiter-Glo)” value [5, 16] of the same compound?
Answer: 59782.00

Question: What about the “luminescence (CellTiter-Glo)” value [5, 17] of the same compound?
Answer: 45217.97

Question: What about the “luminescence (CellTiter-Glo)” value [6, 8] of the same compound?
Answer: 55820.26

Question: What about the “luminescence (CellTiter-Glo)” value [6, 9] of the same compound?
Answer: 51855.78

Question: What about the “luminescence (CellTiter-Glo)” value [6, 10] of the same compound?
Answer: 42984.83

Question: What about the “luminescence (CellTiter-Glo)” value [6, 11] of the same compound?
Answer: 35330.40

Question: And the “luminescence (CellTiter-Glo)” value [6, 12]?
Answer: 19547.86

Question: And the “luminescence (CellTiter-Glo)” value [6, 13]?
Answer: 13432.93

Question: What about the “luminescence (CellTiter-Glo)” value [6, 14] of the same compound?
Answer: 13583.65

Question: And the “luminescence (CellTiter-Glo)” value [6, 15]?
Answer: 14159.61

Question: What about the “luminescence (CellTiter-Glo)” value [6, 16] of the same compound?
Answer: 14383.00

Question: What about the “luminescence (CellTiter-Glo)” value [6, 17] of the same compound?
Answer: 14751.73

Question: And the “luminescence (CellTiter-Glo)” value [7, 8]?
Answer: 74370.91

Question: And the “luminescence (CellTiter-Glo)” value [7, 9]?
Answer: 61632.23

Question: What about the “luminescence (CellTiter-Glo)” value [7, 10] of the same compound?
Answer: 61314.09

Question: What about the “luminescence (CellTiter-Glo)” value [7, 11] of the same compound?
Answer: 61987.79

Question: What about the “luminescence (CellTiter-Glo)” value [7, 12] of the same compound?
Answer: 58424.16

Question: What about the “luminescence (CellTiter-Glo)” value [7, 13] of the same compound?
Answer: 57921.57

Question: What about the “luminescence (CellTiter-Glo)” value [7, 14] of the same compound?
Answer: 55595.72

Question: What about the “luminescence (CellTiter-Glo)” value [7, 15] of the same compound?
Answer: 54213.58

Question: What about the “luminescence (CellTiter-Glo)” value [7, 16] of the same compound?
Answer: 24327.81

Question: What about the “luminescence (CellTiter-Glo)” value [7, 17] of the same compound?
Answer: 54924.70
